Assay type in all cases: biochemical
Assay [1] concerns the target CDK1-cyclin B (Homo sapiens, UniProt P06493). In words: Kinase assay (radioactive phosphate incorporation), CDK1-cyclin B. Conditions: read-out: Kinase Inhibition pIC50 CDK1-cyclin B (converted). A digest of the protocol:
(§1)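 Recombinant kinases (2-4 μg) with polypeptide substrates in pH 7.4 MOPS/β-glycerophosphate buffer. Reactions started with 15 mM MgCl2 + 100 μM ATP containing [γ-32P]-ATP and incubated at 30° C. Filter-bound incorporated radioactivity counted by scintillation; compounds diluted from DMSO stocks into 10% DMSO buffer.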

In assay [2] the target is CDK2-cyclin A (Homo sapiens, UniProt P24941). In words: Kinase assay (radioactive phosphate incorporation), CDK2-cyclin A. Conditions: read-out: Kinase Inhibition pIC50 CDK2-cyclin A (converted). A digest of the protocol:
as §1

Assay [3] deals with CDK2-cycline E (Homo sapiens, UniProt P24941). The assay can be described thus: Kinase assay (radioactive phosphate incorporation), CDK2-cyclin E. The conditions noted are these: read-out: Kinase Inhibition pIC50 CDK2-cycline E (converted). A digest of the protocol:
as §1

Assay [4] deals with CDK4-cyclin D1 (Homo sapiens, UniProt P11802). The assay can be described thus: Kinase assay (radioactive phosphate incorporation), CDK4-cyclin D1. Conditions: read-out: Kinase Inhibition pIC50 CDK4-cyclin D1 (converted). Put shortly:
as §1

Assay [5] has as its target CDK7/cyclin H (Homo sapiens, UniProt P50613). The assay can be described thus: CDK 7 assay (CTD peptide substrate). The conditions noted are these: read-out: Kinase Inhibition pIC50 CDK7-cyclin H (converted). Put shortly: (§2)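 Radiometric assay: recombinant human CDK9/cyclin T1 or CDK7/cyclin H with biotinylated CTD heptapeptide-repeat substrate, 100 μM ATP with [γ-32P]ATP, 15 mM MgCl2, MOPS pH 7.2, 45 min at 30 °C. Avidin-captured substrate filtered onto P81; 32P incorporation counted by scintillation.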

Assay [6] has as its target CDK9/cyclin T1 (Homo sapiens, UniProt P50750). The assay can be described thus: CDK 9 assay (CTD peptide substrate). The conditions noted are these: read-out: Kinase Inhibition pIC50 CDK9-cyclin T1 (converted). Put shortly: as §2
The target in assay [7] is GSK3b (Homo sapiens, UniProt P49841). In words: Kinase assay (radioactive phosphate incorporation), GSK-3b. The conditions noted are these: read-out: Kinase Inhibition pIC50 GSK-3b (converted). Put shortly: as §1
Chain of GSK3b (P49841 whole entry, species assumed): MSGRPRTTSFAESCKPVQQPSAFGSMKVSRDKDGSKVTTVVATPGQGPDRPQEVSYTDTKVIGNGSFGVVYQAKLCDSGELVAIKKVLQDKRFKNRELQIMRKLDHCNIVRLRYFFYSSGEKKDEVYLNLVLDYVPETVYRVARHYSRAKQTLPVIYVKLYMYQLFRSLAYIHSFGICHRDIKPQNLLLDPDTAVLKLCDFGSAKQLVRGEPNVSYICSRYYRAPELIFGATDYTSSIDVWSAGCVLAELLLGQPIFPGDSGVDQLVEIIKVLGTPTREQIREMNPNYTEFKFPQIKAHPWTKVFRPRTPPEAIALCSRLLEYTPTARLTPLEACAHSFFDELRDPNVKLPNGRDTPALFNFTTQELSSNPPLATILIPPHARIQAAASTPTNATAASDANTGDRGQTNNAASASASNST
For assay [8], the target named is T1, Flt3 (FMS-like tyrosine kinase-3) (Homo sapiens, UniProt P36888).
T1 sequence (P36888 27-993): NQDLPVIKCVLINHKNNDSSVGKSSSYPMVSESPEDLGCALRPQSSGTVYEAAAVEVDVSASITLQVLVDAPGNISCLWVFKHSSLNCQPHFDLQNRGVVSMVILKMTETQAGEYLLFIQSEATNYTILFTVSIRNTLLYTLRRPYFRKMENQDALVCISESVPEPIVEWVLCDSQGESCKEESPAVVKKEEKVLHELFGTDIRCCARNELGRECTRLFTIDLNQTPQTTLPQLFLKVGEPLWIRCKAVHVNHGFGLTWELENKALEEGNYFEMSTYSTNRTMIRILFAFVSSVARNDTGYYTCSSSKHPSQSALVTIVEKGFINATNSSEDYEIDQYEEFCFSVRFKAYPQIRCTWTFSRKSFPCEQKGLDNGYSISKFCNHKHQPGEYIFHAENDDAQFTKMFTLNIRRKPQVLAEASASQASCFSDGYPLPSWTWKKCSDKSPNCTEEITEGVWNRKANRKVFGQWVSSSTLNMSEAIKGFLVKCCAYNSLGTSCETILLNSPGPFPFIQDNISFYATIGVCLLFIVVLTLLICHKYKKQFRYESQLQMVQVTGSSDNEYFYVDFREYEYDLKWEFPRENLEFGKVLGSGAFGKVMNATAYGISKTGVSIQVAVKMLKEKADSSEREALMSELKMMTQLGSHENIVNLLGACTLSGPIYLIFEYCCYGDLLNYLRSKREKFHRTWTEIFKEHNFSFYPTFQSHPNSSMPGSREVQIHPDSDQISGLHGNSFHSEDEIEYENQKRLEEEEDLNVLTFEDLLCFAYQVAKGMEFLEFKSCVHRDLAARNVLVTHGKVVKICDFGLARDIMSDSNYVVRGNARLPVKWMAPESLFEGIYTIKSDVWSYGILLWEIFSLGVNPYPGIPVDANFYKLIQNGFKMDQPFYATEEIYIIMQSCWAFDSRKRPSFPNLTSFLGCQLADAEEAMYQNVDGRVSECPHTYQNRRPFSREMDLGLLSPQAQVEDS
In words: Kinase assay (radioactive phosphate incorporation), Flt3. The conditions noted are these: pIC50 is -log(IC50, M), read-out: Kinase Inhibition pIC50 Flt3 (converted). A digest of the protocol:
as §1

The target in assay [9] is T2, Aurora A kinase (Homo sapiens, UniProt O14965).
T2 construct: purchased
T2 sequence (O14965 1-403): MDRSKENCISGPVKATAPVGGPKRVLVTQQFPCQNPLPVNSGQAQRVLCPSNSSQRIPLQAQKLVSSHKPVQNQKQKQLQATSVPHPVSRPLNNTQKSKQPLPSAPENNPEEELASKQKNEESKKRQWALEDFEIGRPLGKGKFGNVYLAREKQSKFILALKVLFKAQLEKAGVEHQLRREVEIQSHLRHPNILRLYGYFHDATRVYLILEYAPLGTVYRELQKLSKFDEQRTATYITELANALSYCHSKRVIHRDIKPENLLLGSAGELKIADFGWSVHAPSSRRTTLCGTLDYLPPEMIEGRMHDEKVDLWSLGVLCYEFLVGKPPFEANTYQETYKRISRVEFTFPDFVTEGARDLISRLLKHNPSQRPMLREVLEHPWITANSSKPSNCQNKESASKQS
In words: Aurora-A (human) kinase assay (Kemptide substrate). The conditions noted are these: pIC50 is -log(IC50, M); 15 μM ATP; read-out: Kinase Inhibition pIC50 Aurora A kinase (converted). A digest of the protocol: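 Radiometric filter-binding assay: commercial aurora-A kinase (5-10 ng) with 200 μM Kemptide in MOPS/EDTA pH 7.0, started with 10 mM Mg acetate and 15 μM ATP plus [γ-33P]-ATP. Incubated 40 min at room temperature, stopped with phosphoric acid, incorporated 33P counted by scintillation.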

Chain of CDK4-cyclin D1 (P11802 whole entry): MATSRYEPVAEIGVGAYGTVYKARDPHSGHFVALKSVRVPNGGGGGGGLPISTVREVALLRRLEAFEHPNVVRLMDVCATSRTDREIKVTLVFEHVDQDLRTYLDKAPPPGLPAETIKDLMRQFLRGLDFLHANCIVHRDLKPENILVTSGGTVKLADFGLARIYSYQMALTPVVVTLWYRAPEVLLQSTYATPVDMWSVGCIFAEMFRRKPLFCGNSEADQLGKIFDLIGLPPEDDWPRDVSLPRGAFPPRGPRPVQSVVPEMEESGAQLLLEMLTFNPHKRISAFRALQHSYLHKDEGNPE
Chain of CDK4-cyclin D1 (P24385 whole entry partner): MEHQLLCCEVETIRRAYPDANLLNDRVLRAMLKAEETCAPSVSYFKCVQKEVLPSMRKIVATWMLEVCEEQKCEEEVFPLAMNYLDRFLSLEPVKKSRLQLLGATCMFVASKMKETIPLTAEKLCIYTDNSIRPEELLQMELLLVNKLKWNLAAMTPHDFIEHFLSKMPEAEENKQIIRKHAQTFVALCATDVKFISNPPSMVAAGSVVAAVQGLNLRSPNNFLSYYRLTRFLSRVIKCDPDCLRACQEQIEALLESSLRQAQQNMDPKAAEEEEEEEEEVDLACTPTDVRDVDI
Chain of CDK1-cyclin B (P06493 whole entry): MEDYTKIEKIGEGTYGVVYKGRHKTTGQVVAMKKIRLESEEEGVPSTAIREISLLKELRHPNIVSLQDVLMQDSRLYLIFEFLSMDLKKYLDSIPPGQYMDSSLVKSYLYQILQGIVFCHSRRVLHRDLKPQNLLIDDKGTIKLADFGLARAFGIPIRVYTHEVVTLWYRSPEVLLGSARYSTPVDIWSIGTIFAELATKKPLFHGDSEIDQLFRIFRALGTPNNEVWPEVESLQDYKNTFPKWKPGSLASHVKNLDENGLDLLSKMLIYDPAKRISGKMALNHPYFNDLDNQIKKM
Chain of CDK1-cyclin B (P14635 whole entry partner): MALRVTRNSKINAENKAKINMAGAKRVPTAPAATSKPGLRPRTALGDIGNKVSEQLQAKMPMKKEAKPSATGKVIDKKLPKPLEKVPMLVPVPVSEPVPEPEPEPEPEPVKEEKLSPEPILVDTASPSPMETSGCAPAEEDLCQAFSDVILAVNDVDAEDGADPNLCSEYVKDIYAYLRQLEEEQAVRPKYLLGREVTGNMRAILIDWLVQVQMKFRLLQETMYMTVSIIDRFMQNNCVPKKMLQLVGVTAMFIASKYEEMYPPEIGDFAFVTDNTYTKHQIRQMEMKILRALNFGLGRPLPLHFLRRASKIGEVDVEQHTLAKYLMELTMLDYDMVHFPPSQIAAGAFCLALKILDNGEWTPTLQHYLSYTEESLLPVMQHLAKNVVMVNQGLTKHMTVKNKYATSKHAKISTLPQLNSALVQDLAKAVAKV
Chain of CDK9/cyclin T1 (P50750 whole entry): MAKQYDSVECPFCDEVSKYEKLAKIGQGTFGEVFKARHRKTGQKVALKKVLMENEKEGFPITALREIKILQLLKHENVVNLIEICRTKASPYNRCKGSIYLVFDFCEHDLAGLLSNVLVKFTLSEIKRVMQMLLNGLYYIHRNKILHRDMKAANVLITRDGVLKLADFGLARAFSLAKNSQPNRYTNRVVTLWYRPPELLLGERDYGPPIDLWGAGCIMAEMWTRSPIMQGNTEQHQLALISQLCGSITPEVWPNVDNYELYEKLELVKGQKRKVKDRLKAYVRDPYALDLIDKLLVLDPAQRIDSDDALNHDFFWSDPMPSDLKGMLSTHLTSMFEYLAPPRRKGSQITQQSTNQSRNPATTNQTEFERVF
Chain of CDK9/cyclin T1 (O60563 whole entry partner): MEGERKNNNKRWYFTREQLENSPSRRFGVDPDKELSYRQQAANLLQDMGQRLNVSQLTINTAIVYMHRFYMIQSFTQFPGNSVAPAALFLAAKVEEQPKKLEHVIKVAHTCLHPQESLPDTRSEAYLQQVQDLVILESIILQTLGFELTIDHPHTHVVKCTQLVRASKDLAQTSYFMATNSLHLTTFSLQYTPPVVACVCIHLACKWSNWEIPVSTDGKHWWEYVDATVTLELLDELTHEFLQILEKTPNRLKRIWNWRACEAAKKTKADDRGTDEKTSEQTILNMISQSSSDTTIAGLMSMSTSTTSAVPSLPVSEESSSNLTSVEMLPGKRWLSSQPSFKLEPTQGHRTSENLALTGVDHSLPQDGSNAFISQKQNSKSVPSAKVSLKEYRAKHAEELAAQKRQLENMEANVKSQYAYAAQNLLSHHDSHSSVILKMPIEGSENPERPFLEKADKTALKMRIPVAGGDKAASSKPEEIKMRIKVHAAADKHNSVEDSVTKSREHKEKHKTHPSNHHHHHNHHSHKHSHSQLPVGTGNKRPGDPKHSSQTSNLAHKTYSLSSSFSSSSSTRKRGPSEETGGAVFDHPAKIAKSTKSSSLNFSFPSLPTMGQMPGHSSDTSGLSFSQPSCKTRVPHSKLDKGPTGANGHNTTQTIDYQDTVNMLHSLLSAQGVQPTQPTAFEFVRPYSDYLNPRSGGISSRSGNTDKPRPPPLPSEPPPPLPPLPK
Chain of CDK7/cyclin H (P50613 whole entry): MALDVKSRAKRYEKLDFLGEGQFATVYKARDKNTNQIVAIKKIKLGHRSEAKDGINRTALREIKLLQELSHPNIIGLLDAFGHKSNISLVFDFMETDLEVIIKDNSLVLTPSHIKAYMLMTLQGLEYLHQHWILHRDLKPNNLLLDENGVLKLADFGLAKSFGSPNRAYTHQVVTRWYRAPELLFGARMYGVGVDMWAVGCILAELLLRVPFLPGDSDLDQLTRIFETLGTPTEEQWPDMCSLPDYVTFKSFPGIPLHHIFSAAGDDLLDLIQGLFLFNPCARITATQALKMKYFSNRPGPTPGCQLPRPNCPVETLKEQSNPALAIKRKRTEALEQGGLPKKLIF
Chain of CDK7/cyclin H (P51946 whole entry partner): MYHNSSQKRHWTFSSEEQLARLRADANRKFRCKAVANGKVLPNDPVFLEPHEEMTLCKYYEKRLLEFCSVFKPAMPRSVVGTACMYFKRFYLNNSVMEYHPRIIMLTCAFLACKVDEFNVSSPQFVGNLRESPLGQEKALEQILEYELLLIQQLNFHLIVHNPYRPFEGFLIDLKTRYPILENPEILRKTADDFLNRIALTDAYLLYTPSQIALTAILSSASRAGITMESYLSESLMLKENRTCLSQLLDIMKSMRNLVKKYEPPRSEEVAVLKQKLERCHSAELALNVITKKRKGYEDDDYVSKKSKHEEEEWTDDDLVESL

On to `CCNc1nc(C)c(-c2ccnc(Nc3cccc(CNS(C)(=O)=O)c3)n2)s1` [Compound 5, N-{3-[4-(2-Ethylamino-4-methyl-thiazol-5-yl)-pyrimidin-2-ylamino]-benzyl}-methanesulfonamide], for which the IC50 in assay [1] is 1260 nM; in [2], 200 nM; in assay [3], 158 nM; in assay [4], 158 nM; in assay [5], 251 nM; in [6] it was 12.6 nM. The figures for the IC50 in assay [7], in assay [8] and in [9] were 200 nM, 50.1 nM and 31.6 nM, respectively.

With `CCNS(=O)(=O)c1cccc(Nc2nccc(-c3sc(N)nc3C)n2)c1` [Compound 30, 3-[4-(2-Amino-4-methyl-thiazol-5-yl)-pyrimidin-2-ylamino]-N-ethyl-benzenesulfonamide], the IC50 in assay [1] is 2000 nM; in assay [2], 1000 nM; in assay [3], 100 nM; in assay [4] it was 794 nM; in assay [5], 398 nM; in [6], 20 nM. The IC50 in assay [7] is 316 nM; in assay [8], 200 nM; in assay [9], 15.8 nM.

On to `CNc1nc(C)c(-c2ccnc(Nc3ccc(CNC(C)=O)cc3)n2)s1` [Compound 14, N-{4-[4-(4-Methyl-2-methylamino-thiazol-5-yl)-pyrimidin-2-ylamino]-benzyl}-acetamide], for which the IC50 in assay [1] was 398 nM; in [2] it was 631 nM; in assay [3], 39.8 nM; in assay [4], 126 nM; in assay [5], 794 nM; in assay [6], 79.4 nM. The values for the IC50 in assay [7] and in assay [8] were 631 nM and 79.4 nM, respectively.

Consider `CCNc1nc(C)c(-c2ccnc(Nc3cccc(S(N)(=O)=O)c3)n2)s1` [Compound 18, 3-[4-(2-Ethylamino-4-methyl-thiazol-5-yl)-pyrimidin-2-ylamino]-benzenesulfonamide], for which the IC50 is 2000 nM in [1]; 1580 nM in assay [2]; 794 nM in assay [3]; 251 nM in assay [4]; 126 nM in assay [5]; 15.8 nM in assay [6]. Moreover, the IC50 in assay [7] is 2510 nM; in assay [8] it was 158 nM.

As to `CNc1nc(C)c(-c2ccnc(Nc3cccc(S(=O)(=O)NC(C)=O)c3)n2)s1` [Compound 63, N-Acetyl-3-[4-(4-methyl-2-methylamino-thiazol-5-yl)-pyrimidin-2-ylamino]-benzenesulfonamide], the IC50 was 6310 nM in assay [1]; 3160 nM in [2]; 631 nM in [3]; 501 nM in assay [4]; 2510 nM in [5]; 398 nM in assay [6]. Moreover, the IC50 in assay [7] and in assay [9] was 1580 nM each time.

As for `CCNc1nc(C)c(-c2ccnc(Nc3ccc(S(=O)(=O)NCCO)cc3)n2)s1` [Compound 65, 4-[4-(2-Ethylamino-4-methyl-thiazol-5-yl)-pyrimidin-2-ylamino]-N-(2-hydroxy-ethyl)-benzenesulfonamide], the IC50 in assay [1] is 50.1 nM; in assay [2] it was 20 nM; in [3], 15.8 nM; in assay [4], 12.6 nM; in [5], 200 nM; in assay [7], 316 nM. Moreover, the IC50 in assay [8] is 200 nM; in [9] it was 251 nM.

Turning to `CC(=O)NS(=O)(=O)c1cccc(Nc2nccc(-c3sc(N)nc3C)n2)c1` [Compound 64, N-Acetyl-3-[4-(2-amino-4-methyl-thiazol-5-yl)-pyrimidin-2-ylamino]-benzenesulfonamide], the IC50 in [1] was 6310 nM; in assay [2] it was 2510 nM; in [3], 398 nM; in assay [4], 398 nM; in assay [5] it was 1580 nM; in [6] it was 251 nM. Also, the IC50 in assay [7] is 1580 nM; in assay [9], 200 nM.

On to `CNc1nc(C)c(-c2ccnc(Nc3ccc(S(=O)(=O)NCCO)cc3)n2)s1` [Compound 67, N-(2-Hydroxy-ethyl)-4-[4-(4-methyl-2-methylamino-thiazol-5-yl)-pyrimidin-2-ylamino]-benzenesulfonamide], for which the IC50 in assay [1] was 50.1 nM; in [2] it was 15.8 nM; in assay [3] it was 6.31 nM; in [4] it was 501 nM; in assay [5], 3980 nM; in assay [7], 1260 nM. Also, the IC50 in assay [8] and in assay [9] was 316 nM each time.

Consider `CNc1nc(C)c(-c2ccnc(Nc3ccc(S(C)(=O)=O)cc3)n2)s1` [Compound 20, (4-Methanesulfonyl-phenyl)-[4-(4-methyl-2-methylamino-thiazol-5-yl)-pyrimidin-2-yl]-amine], for which the IC50 in assay [1] is 158 nM; in [2], 15.8 nM; in assay [3], 2.51 nM; in assay [4], 2510 nM; in [5] it was 3980 nM; in [6], 63.1 nM. The IC50 in assay [7] and in assay [8] was 316 nM each time.

Turning to `CNS(=O)(=O)c1cccc(Nc2nccc(-c3sc(C)nc3C)n2)c1` [Compound 33, 3-[4-(2,4-Dimethyl-thiazol-5-yl)-pyrimidin-2-ylamino]-N-methyl-benzenesulfonamide], the IC50 is 501 nM in assay [1]; 200 nM in assay [2]; 50.1 nM in [3]; 200 nM in assay [4]; 126 nM in [5]; 10 nM in [6]. Besides, the IC50 in assay [7] was 200 nM; in assay [9], 1260 nM.

On to `CCNc1nc(C)c(-c2ccnc(Nc3ccc(S(=O)(=O)NCCOC)cc3)n2)s1` [Compound 39, 4-[4-(2-Ethylamino-4-methyl-thiazol-5-yl)-pyrimidin-2-ylamino]-N-(2-methoxy-ethyl)-benzenesulfonamide], for which the IC50 in assay [1] was 50.1 nM; in [2] it was 12.6 nM; in assay [3], 15.8 nM; in [4] it was 501 nM; in [5] it was 631 nM; in [6] it was 200 nM. The figures for the IC50 in assay [7] and in assay [9] were 5010 nM and 126 nM, respectively.

Source of the values: patent US20090137572A1, “2-substituted-4-heteroaryl-pyrimidines useful for the treatment of proliferative disorders” (priority 2004, published 2009).
